Laboratory results as given in patent US20040224937A1, “Use of protein kinase C inhibitor for suppressing sustained slow postsynaptic excitation (SSPE)” (Pfizer Inc, priority 2003, published 2004).
Entries after “also recorded” stand apart in the source; their conditions may differ.

What was measured:
[1] = test system: myenteric intrinsic primary afferent neurons (IPANs; AH neurons); test: Sustained slow postsynaptic excitation (SSPE) evoked by 1 Hz, 4 min stimulation of synaptic inputs; intracellular recording in ileum myenteric plexus; format: cell-based, guinea pig; details: for effect on the excitability increase associated with SSPE: stimulation of presynaptic inputs 1 Hz for 4 min
Excerpt: (§1) Guinea pigs from the inbred Hartley strain colony of the Department of Anatomy and Cell Biology at the University of Melbourne were used. All efforts were made to minimize animal suffering and numbers of animals used. The experiments conformed to National Health and Medical Research Council of Australia guidelines and were approved by the University of Melbourne Animal Experimentation Ethics Committee. Guinea pigs of either sex (180-250 g) were stunned by a blow to the head and killed by severing the carotid arteries and spinal cord, and segments of ileum were removed into physiological saline. The segments were placed in a recording dish lined with silicone elastomer, opened along the line of the mesenteric attachment and pinned flat under moderate tension with the mucosa uppermost. During dissection, the tissue was immersed in physiological saline (composition in mM: NaCl 118, KCl 4.8, NaHCO3 25, NaH2PO4 1.0, MgSO4 1.2, glucose 11.1, CaCl2 2.5) and kept at room temperature. The mucosa, submucosa and circular smooth muscle were removed to expose the myenteric plexus. The recording dish (volume 4 mL) was then placed on the stage of an inverted microscope and continuously superfused (4 mL/min) with physiological saline that had been preheated to yield a bath temperature of 35-37° C. The superperfusion solution was bubbled with 95% O2 and 5% CO2 and contained nicardipine (3 μM) and hyoscine (1 μM) to inhibit muscle movement. The tissue was equilibrated with the perfusate for 1-2 h before recording was commenced.
(§2) Individual neurons were impaled using conventional intracellular microelectrodes (resistance, […]) filled with 1 M KCl. Signals were amplified using an AxoClamp 2B amplifier (Axon instruments, Foster City, Calif., USA), digitized at 5-20 kHz and stored using PC-based data acquisition software (Axoscope 8.0). Measurements were made after allowing the impalements to stabilize for at least 15 min without applying intracellular holding current. Neurons were identified as AH cells based on the presence of a hump on the falling phase of the action potential and, in most cells, a late after-hyperpolarising potential following the action potential. Stimuli were applied to inter-ganglionic connectives at a frequency of 1 Hz, via a fine tungsten stimulating electrode (tip diameter<50 μm) that was placed on a circumferentially located internodal strand adjacent to the ganglion. Pulses were 0.1 ms in duration and <0.3 mA in intensity.
(§3) Neuronal excitability was assessed, by injecting 500 ms depolarizing current pulses (0.05-0.2 nA). The depolarizing pulses were delivered at intervals of 40 s. The mean excitability was evaluated by averaging the numbers of action potentials evoked by the 6 depolarizing current pulses for periods of 4 min, prior to the 1 Hz stimulus, around the peak of the response, and for a period of 4 min after the end of the stimulus. To determine input resistance (Rin), small hyperpolarizing current pulses (duration 100 ms; intensity<0.02 nA) were injected before each depolarizing pulse. The membrane potential (MP) was sampled each 40 s. MP, Rin, and numbers of action potentials in response to depolarizing pulses were determined.

[2] = test system: myenteric intrinsic primary afferent neurons (IPANs; AH neurons); test: Direct effect of compounds on excitability, membrane potential, input resistance and action potentials of AH neurons (no or before presynaptic stimulation); format: cell-based, guinea pig
Excerpt: as §1, §2, §3

O=S(=O)(NCCNC/C=C/c1ccc(Br)cc1)c1cccc2cnccc12 [H89]
effect on the excitability increase associated with SSPE ([1]; 1 μM): no effect; also recorded: not changed | effect on excitability, membrane potential or input resistance before stimulation of presynaptic inputs ([2]; 1 μM, about 15-25 min exposure): no changes

CCCC(=O)O[C@@H]1[C@@H](C)[C@@]2(O)[C@@H](C=C(CO)C[C@]3(O)C(=O)C(C)=C[C@@H]23)[C@@H]2C(C)(C)[C@]12OC(=O)CCC [PDBu, phorbol 12, 13 dibutyrate]
effect on excitability of the neuron ([2]; 1 μM, example neuron, FIG. 5A): increased the excitability | depolarization ([2]; 1 μM, example neuron, FIG. 5B): about 8 mV | increase of input resistance ([2]; 1 μM, example neuron, FIG. 5C): about 100 MΩ | amplitude of the after-hyperpolarizing potential (AHP) during exposure ([2]; 0.2-1 μM in bath for 5-10 min): decreased | duration of effect beyond washing out of the compound ([2]; 0.2-1 μM in bath for 5-10 min): ≥ 10 min

[H]/N=C(/N)SCCCn1cc(C2=C(c3cn(C)c4ccccc34)C(=O)NC2=O)c2ccccc21 [RO31-8220, 3-[1-[3-(Amidinothio)propyl-1H-indol-3-yl]-3-(1-methyl-1H-indol-3-yl)maleimide Bisindolylmaleimide IX, methanesulfonate]
effect on the excitability increase associated with SSPE ([1]; 1 μM): not reduced | effect on the excitability increase associated with SSPE ([1]; 3.3 μM, n=6, P<0.1): reduced the degree to which the excitability increased; also recorded: reduction in the increase of AH neuron excitability | effect on antidromic action potential generation ([2]; 3.3 μM): did not cause a depression | effect on excitability, membrane potential or input resistance before stimulation of presynaptic inputs ([2]; 3.3 μM, 15 min exposure): without affecting | effect on antidromic action potentials ([2]; 10 μM, restored by increasing stimulus strength): sometimes suppressed

CN[C@@H]1C[C@H]2O[C@@](C)([C@@H]1OC)n1c3ccccc3c3c4c(c5c6ccccc6n2c5c31)C(=O)NC4 [staurosporine]
decrease of the peak change in excitability during SSPE ([1]; 1 μM, stimulation 1 Hz for 4 min, n=6, P<0.01 vs control): about 75% | effect on the excitability increase associated with SSPE ([1]; 1 μM): significantly smaller or no increase in neuronal excitability | effect on excitability, membrane potential or input resistance before stimulation of presynaptic inputs ([2]; 1 μM, about 15-25 min exposure): did not cause any change

calphostin C
reversal of excitability already enhanced by successive stimuli (maintenance of SSPE) ([1]; 1 μM, added after SSPE had been enhanced): did not restore excitability to its pre-stimulus level | effect on the excitability increase associated with SSPE ([1]; 1 μM): blocked | effect on the excitability increase associated with SSPE ([1]; 1 μM, listed as Calphostin C): substantially reduced | effect on excitability, membrane potential or input resistance before stimulation of presynaptic inputs ([2]; 1 μM, about 15-25 min exposure): did not affect
